Reference: PMC12867150, “A fungi-derived cyclic peptide enhances Th9-mediated antitumor immunity by targeting ZAP70 and SREBP1” (The Journal of Clinical Investigation, 2025)
“And” between values parts separate entries of the source, which are not always exact repeats. Identical values can stand only once.

Tests used:
Format in all cases: cell-based, mouse
[1] = test system: Th9 cells; assay: Th9 differentiation, dose response, IL-9+ cells by flow cytometry (Figure 1D); design: IL-9+ Th9 differentiation: unit not given here; conditions: for IL-9+ Th9 differentiation: flow cytometry, individual replicates, n = 6
Description: IL-9 expression peaked at 10 μM, which was used for all subsequent experiments (Figure 1D).
Naive CD4^+ T cells were isolated from the spleens of C57BL/6J or CD45.1^+ OT-II mice using the MojoSort Mouse CD4 Naive T Cell Isolation Kit (BioLegend, catalog 480040), following the manufacturer’s protocol. Purified cells were cultured in RPMI-1640 medium supplemented with 10% FBS, 1% penicillin-streptomycin, and 0.1% β-mercaptoethanol (Gibco, catalog 21985023).
T cell polarization was initiated under plate-bound anti-CD3 (2 μg/mL, clone 17A2, BioXCell, catalog BE0002) and soluble anti-CD28 (1 μg/mL, clone 37.51, BioXCell, catalog BE0015-1) stimulation, with the addition of cytokines and neutralizing antibodies specific to each subset. For Th9 cells, these included IL-4 (10 ng/mL, Peprotech, catalog 400-04), TGF-β (1 ng/mL, EPOTO Biotech, catalog HF-2021), anti–IL-12 (5 μg/mL, clone C17.8, BioXCell, catalog BE0051), and anti–IFN-γ (10 μg/mL, clone XMG1.2, BioXCell, catalog BE0055); for Th1 cells, these included IL-12 (10 ng/mL, GenScript, catalog Z03211-50) and anti–IL-4 (5 μg/mL, clone 11B11, BioXCell, catalog BE0045); for Th2 cells, these included IL-4 (50 ng/mL), anti–IFN-γ (20 μg /mL), anti–IL-12 (5 μg/mL), Th17 cells: IL-6 (20 ng/mL, EPOTO Biotech, catalog MF-1006), TGF-β (1 ng/mL), IL-1β (10 ng/mL, Peprotech, catalog AF-211-11B), anti–IFN-γ (10 μg/mL), anti–IL-12 (5 μg/mL), and anti–IL-4 (5 μg/mL); and for Tregs, these included TGF-β (3 ng/mL). After 3 days of initial culture, cells were either collected for downstream assays or continued in extended culture with refreshed cytokines to maintain lineage commitment.
During the entire culture period, experimental groups were treated continuously with the indicated compound at the designated concentration, whereas control groups received an equal volume of DMSO.
BioLegend, Cat. No. 422301 or Mouse TruStain FcX™, BioLegend, Cat. No. 101319) for 10 minutes at 4°C. For surface marker detection, cells were stained with fluorochrome-conjugated monoclonal antibodies in 96-well V-bottom plates and incubated on ice for 30 minutes. After staining, cells were washed twice and resuspended in FACS buffer for analysis.
Prior to intracellular cytokine staining, cells were restimulated for 4 hours with PMA (Absin, Cat. No. abs9107), ionomycin (Sigma-Aldrich, Cat. No. I0634), and brefeldin A (MedChemExpress, Cat. No. HY-16592). For intracellular cytokine staining, cells were first surface-stained as described above, then fixed and permeabilized using the BD Cytofix/Cytoperm™ kit (BD Biosciences, Cat. No. 554714) according to the manufacturer ’s protocol. Intracellular proteins were stained with directly conjugated antibodies targeting IL-9, IL-17a, IL-4, IFN-γ, TNF-α, FOXP3, p-ZAP70, Perforin, and […]

[2] = test system: mitochondria of Th9 cells; assay: Transmission electron microscopy of mitochondrial number and diameter (Figure 4J-K)
Description: Mitochondrial mass and membrane potential were assessed using MitoTracker™ Deep Red FM (Thermo Fisher Scientific, catalog M22426) and TMRM (tetramethylrhodamine methyl ester; Macklin, catalog T868125), respectively, following the manufacturers’ protocols. Cells were incubated with the respective dyes, washed, and subjected to flow cytometry or fluorescence microscopy analysis. For ultrastructural assessment, mitochondrial number and diameter were quantified from high-resolution transmission electron microscopy (TEM) images using ImageJ software.

[3] = test system: Th9 cells; assay: IL-9+ Th9 cells with oleic acid (S8I-J); conditions: representative flow plot, Figure S8I; EpA 10 μM, OA 50 μM
Excerpt: LXR-α binding site ChREBP binding site USF1 binding site […] 2.1 1.8 2.1 […] 1.9 […] 20 20 0 […] + OA ✱✱✱✱ MIGR1 M Ctrl + OAEpA […] SREBP1 Ctrl SREBP1EpA ✱✱✱✱ ✱✱✱ 3 2 1 0 TNF-α MIGR1 SREBP1 […] SREBP1EpA Figure S8. EpA-associated modulation of lipid metabolism and its impact on Figure S8 Th9 cell function. (A-C) GSEA of RNA-seq data showing intracellular sterol transport (A), sterol transfer activity (B), and long-chain fatty acid transport (C) pathways in control and EpA-treated Th9 cells. […] (K and L) Flow-cytometric analysis of IL-9 expression in Th9 cells transduced with either control (MIGR1) or SREBP1- […]

## anteiso-C15 Leu7 surfactin [EpA]
[1]; EpA 1 μM
  IL-9+ Th9 differentiation: 49.4 and 48.8 and 36.1 and 37.3 and 36.5 and 50.3
[1]; EpA 10 μM
  IL-9+ Th9 differentiation: 82.5 and 80.4 and 79.9 and 77.4 (2×) and 76.3
[1]; EpA 20 μM
  IL-9+ Th9 differentiation: 52.4 and 52.2 and 48.1 and 34.8 and 36 and 37.3
[1]; increasing concentrations of EpA
  concentration at which IL-9 expression peaked: 10 µM
[2]; Figure 4J, individual cells
  Number of mitochonodrion/cell: 12 and 23 and 11 and 16 and 10 and 21 and 9 and 17 and 6 and 7 and 24
[2]; result in words
  number and diameter of mitochondria: increased number and diameter of mitochondria
[3]
  IL-9 gate number: 77.2
